The nature of data set [1]: logP (acidic, pH 2.3).
The test system of data set [2] is Erysiphe graminis f. sp. Hordei. Nature of the data set: Erysiphe test (barley) / protective. It is filed as in vivo. Particulars: Blumeria graminis, 168 h; barley plants, protective spray, 500 ppm active compound, evaluation 7 days after inoculation; read-out: efficacy. Here is the method:
Solvent: 49 parts by weight of N,N-dimethylformamide
Emulsifier: 1 part by weight of alkylaryl polyglycol ether
To produce a suitable preparation of active compound, 1 part by weight of N-ethyl-N-methyl-N′-[4-phenoxy-2,5-xylyl]formamidine (according to formula I-a) is mixed with the stated amounts of solvent and emulsifier, and the concentrate is diluted with water to the desired concentration.
To test for protective activity, young cereal plants are sprayed with the active compound preparation at the stated application rate. 1 day after the treatment, the plants are inoculated with spores of Erysiphe graminis f. sp. Hordei. The plants are then placed in a greenhouse at 70% relative atmospheric humidity and a temperature of 18° C.
Evaluation is carried out 7 days after the inoculation. 0% means an efficacy which corresponds to that of the control, whereas an efficacy of 100% means that no infection is observed.

A word on the logP: it is a log measure of how a compound divides between an organic and an aqueous phase. A low value points to a more hydrophilic compound.

As to “4-(3-Isopropylphenoxy)-2-chloro-5-methylnitrobenzene”, the “log P (pH2.3)” value in data set [1] (pH 2.3) turned out to be 5.54.
As to `Cc1cc(N)c(Cl)cc1Oc1cccc(C(C)C)c1` [4-(3-Isopropylphenoxy)-2-chloro-5-methylaniline], the logP in data set [1] (pH 2.3) came out at 4.68.
Turning to `CCN(C)C=Nc1cc(C)c(Oc2cccc(C(C)(CC)OC)c2)cc1C` (stereo not shown) [Compound 8, N-ethyl-N′-{4-[3-(1-methoxy-1-methylpropyl)phenoxy]-2,5-dimethylphenyl}-N-methylimidoformamide], in data set [2], the pest or weed control at 500 ppm was ≥ 70%.
For the molecule `CCN(C)C=Nc1cc(C)c(Oc2cccc(C(C)(C)OC)c2)cc1C` [Compound 37, N-ethyl-N′-{4-[3-(1-methoxy-1-methylethyl)phenoxy]-2,5-dimethylphenyl}-N-methylimidoformamide], the pest or weed control at 500 ppm in data set [2] was ≥ 70%. The molecule further yielded a log partition coefficient (logP) in data set [1] (pH 2.3) of 2.14.
Turning to `CCN(C)C=Nc1cc(C)c(Oc2cccc(CCCO)c2)cc1C` [Compound 57-1, N-ethyl-N′-{4-[3-(3-hydroxypropyl)phenoxy]-2,5-dimethylphenyl}-N-methylimidoformamide], the log partition coefficient (logP) in data set [1] (pH 2.3) was found to be 1.56.
Take `Cc1cc(Oc2cccc(CCCO)c2)c(C)cc1N=CN(C)C(C)C` [Compound 57-2, N′-{4-[3-(3-hydroxypropyl)phenoxy]-2,5-dimethylphenyl}-N-isopropyl-N-methylimidoformamide]: in data set [2], the pest or weed control at 500 ppm was ≥ 70%. Moreover, in data set [1] (pH 2.3), the logP was found to be 1.67.
Consider `CCN(C)C=Nc1cc(C)c(Oc2cccc(C(C)C)c2)cc1Cl` [Compound 61-1, N′-[2-chloro-4-(3-isopropylphenoxy)-5-methylphenyl]-N-ethyl-N-methylimidoformamide], for which, in data set [2], the pest or weed control at 500 ppm is ≥ 70%. The logP in data set [1] (pH 2.3) amounted to 2.38.
In the case of `Cc1cc(N=CN(C)C(C)C)c(Cl)cc1Oc1cccc(C(C)C)c1` [Compound 61-2, N′-[2-chloro-4-(3-isopropylphenoxy)-5-methylphenyl]-N-isopropyl-N-methylimidoformamide], in data set [2], the pest or weed control at 500 ppm is ≥ 70%. Moreover, the logP in data set [1] (pH 2.3) was determined as 2.54.
In data set [1] (pH 2.3), `Cc1cc(/N=C/N2CCCCC2)c(Cl)cc1Oc1cccc(C(C)C)c1` [Compound 61-3, 2-chloro-4-(3-isopropylphenoxy)-5-methyl-N-[(1E)-piperidin-1-ylmethylene]aniline] yielded a logP of 2.62.
Molecule `Cc1cc(/N=C/N2CCCCC2C)c(Cl)cc1Oc1cccc(C(C)C)c1` (stereo not shown) [Compound 61-4, 2-chloro-4-(3-isopropylphenoxy)-5-methyl-N-[(1E)-(2-methylpiperidin-1-yl)methylene]aniline] gave a logP in data set [1] (pH 2.3) of 2.67.
Consider `CCN(C)C=Nc1cc(C)c(Oc2cccc(CC(C)(C)C)c2)cc1C` [Compound 62, N′-{4-[3-(2,2-dimethylpropyl)phenoxy]-2,5-dimethylphenyl}-N-ethyl-N-methylimidoformamide], for which, in data set [2], the pest or weed control at 500 ppm was ≥ 70%. The same molecule returned a logP in data set [1] (pH 2.3) of 2.74.
Taken in the same sequence, the figures for `CCN(C)C=Nc1cc(C)c(Oc2cccc(C[Si](C)(C)C)c2)cc1C` [Compound 63, N′-(2,5-dimethyl-4-{3-[(trimethylsilyl)methyl]-phenoxy}phenyl)-N-ethyl-N-methylimido-formamide] were ≥ 70% and 2.93.
Taken in the same sequence, the figures for `CCN(C)C=Nc1cc(C)c(Oc2cccc(C3CC3)c2)cc1C` [Compound 64, N′-[4-(3-cyclopropylphenoxy)-2,5-dimethylphenyl]-N-ethyl-N-methylimido-formamide] were ≥ 70% and 2.35.
For `CCCN(C)C=Nc1cc(C)c(Oc2cccc(C(C)(C)OC)c2)cc1C` [Compound 65-1, N′-{4-[3-(1-methoxy-1-methylethyl)-phenoxy]-2,5-dimethylphenyl}-N-methyl-N-propyl imidoformamide], the logP acidic in data set [1] (acidic) is listed as 2.50.
Consider `COC(C)(C)c1cccc(Oc2cc(C)c(/N=C/N3CC(C)OC(C)C3)cc2C)c1` (stereo not shown) [Compound 65-2, N-[(1E)-(2,6-dimethyl-morpholin-4-yl)methylene]-4-[3-(1-methoxy-1-methylethyl)phenoxy]-2,5-dimethylaniline], for which the logP in data set [1] (pH 2.3) was 2.24.

The values above are taken from patent US8394991B2, “Phenoxy substituted phenylamidine derivatives and their use as fungicides” (Bayer Cropscience AG, priority 2007, dated 2013).
